Drawing on patent US9278974B2, “Substituted pyrazolo[3,4-d]pyrimidine compounds, their preparation and use as sigma receptors ligands” (LABORATORIOS DEL DR. ESTEVE S.A., priority 2012, dated 2016), this text covers Ki for 28 compounds.

Structures can show the parent of a compound that is named as a salt.

T1 sequence (Q60492 whole entry): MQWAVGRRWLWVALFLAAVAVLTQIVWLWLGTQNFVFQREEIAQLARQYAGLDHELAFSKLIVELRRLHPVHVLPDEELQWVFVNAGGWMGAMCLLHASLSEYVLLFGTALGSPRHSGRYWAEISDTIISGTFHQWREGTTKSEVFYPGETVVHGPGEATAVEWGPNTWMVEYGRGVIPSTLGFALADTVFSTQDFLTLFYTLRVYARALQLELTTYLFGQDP

This assay addresses T1, sigma-1 receptor (Cavia porcellus, UniProt Q60492).
T1 construct: Guinea pig brains were homogenized in 10 vols; (w/v) of Tris-HCl 50 mM 0.32 M sucrose, pH 7.4; from tissue; host or cells: guinea pig brain membranes
The experiment in a line: Sigma-1 receptor binding assay, [3H]-(+)-pentazocine, guinea pig brain membranes. Particulars: radioligand [3H]-(+)-pentazocine 5.0 nM, 150 min at 37° C., nonspecific binding with 1 μM haloperidol. How it is done:
Brain membrane preparation and binding assays for the […] were performed as described (DeHaven-Hudkins, D. L., L. C. Fleissner, and F. Y. Ford-Rice, 1992, Characterization of the binding of [^3H](+)pentazocine to α recognition sites in guinea pig brain, Eur. J. Pharmacol. 227, 371-378) with some modifications. Guinea pig brains were homogenized in 10 vols. (w/v) of Tris-HCl 50 mM 0.32 M sucrose, pH 7.4, with a Kinematica Polytron PT 3000 at 15000 r.p.m. for 30 s. The homogenate was centrifuged at 1000 g for 10 min at 4° C. and the supernatants collected and centrifuged again at 48000 g for 15 min at 4° C. The pellet was resuspended in 10 volumes of Tris-HCl buffer (50 mM, pH 7.4), incubated at 37° C. for 30 min, and centrifuged at 48000 g for 20 min at 4° C. Following this, the pellet was re-suspended in fresh Tris-HCl buffer (50 mM, pH 7.4) and stored on ice until use.
The radioligand used was [^3H]-(+)-pentazocine at 5.0 nM and the final volume was 200 μl. The incubation was initiated with the addition of 100 μl of membrane at a final tissue concentration of approximately 5 mg tissue net weight/mL and the incubation time was 150 m. at 37° C. After incubation, the membranes were collected onto pretreated glass fiber filterplate (MultiScreen-FC, Millipore), with polyethylenimine 0.1%. The filters were washed two times with 200 μl of washing buffer (50 mM Tris Cl, pH=7.4) and then 25 μl of Ecoscint H liquid scintillation cocktail were added. Microplates were allowed to set for several hours and then quantified by liquid scintillation spectrophotometry (1450 Microbeta, Wallac). Nonspecific binding was determined with 1 μM haloperidol.
For the compound `COc1ncccc1-c1ncnc2c1cnn2CCN1CCCCC1` [Example 11, 4-(2-methoxypyridin-3-yl)-1-(2-(piperidin-1-yl)ethyl)-1H-pyrazolo[3,4-d]pyrimidine (L)-tartrate], the Ki (as a rule, a measure of affinity in units of concentration, obtained from inhibition or displacement) was determined as 151 nM.
Compound `c1nc(-c2cnsc2)c2cnn(CCN3CCCCC3)c2n1` [Example 36, 4-(1-(2-(piperidin-1-yl)ethyl)-1H-pyrazolo[3,4-d]pyrimidin-4-yl)isothiazole] gave a Ki of 475 nM.
`c1ccc(-c2ncnc3c2cnn3CCN2CCCCC2)cc1` [Example 1, 4-phenyl-1-(2-(piperidin-1-yl)ethyl)-1H-pyrazolo[3,4-d]pyrimidine] showed a Ki of 99.6 nM.
With `Cc1ccc(C)c(-c2ncnc3c2cnn3CCN2CCCCC2)c1` [Example 26, 4-(2,5-dimethylphenyl)-1-(2-(piperidin-1-yl)ethyl)-1H-pyrazolo[3,4-d]pyrimidine], the Ki was 55.4 nM.
Regarding `CN(CCn1ncc2c(-c3ccnn3C)ncnc21)Cc1ccc(F)cc1` [Example 48, N-(4-fluorobenzyl)-N-methyl-2-(4-(1-methyl-1H-pyrazol-5-yl)-1H-pyrazolo[3,4-d]pyrimidin-1-yl)ethanamine], the Ki was 34.1 nM.
The compound `Cc1cncc(-c2ncnc3c2cnn3CCN2CCCCC2)c1` [Example 18, 4-(5-methylpyridin-3-yl)-1-(2-(piperidin-1-yl)ethyl)-1H-pyrazolo[3,4-d]pyrimidine] showed a Ki of 447 nM.
As to `Cn1cccc1-c1ncnc2c1cnn2CCN1CCCCC1` [Example 27, 4-(1-methyl-1H-pyrrol-2-yl)-1-(2-(piperidin-1-yl)ethyl)-1H-pyrazolo[3,4-d]pyrimidine], the Ki turned out to be 31.5 nM.
To `Cc1ccc(Cl)c(-c2ncnc3c2cnn3CCN2CCCCC2)c1` [Example 25, 4-(2-chloro-5-methylphenyl)-1-(2-(piperidin-1-yl)ethyl)-1H-pyrazolo[3,4-d]pyrimidine] belongs 31.2 nM; to `COc1cc(F)ccc1-c1ncnc2c1cnn2CCN1CCCCC1` [Example 28, 4-(4-fluoro-2-methoxyphenyl)-1-(2-(piperidin-1-yl)ethyl)-1H-pyrazolo[3,4-d]pyrimidine], 39.2 nM.
To `Fc1ccc(-c2ncnc3c2cnn3CCN2CCCCC2)c(F)c1` [Example 39, 4-(2,4-difluorophenyl)-1-(2-(piperidin-1-yl)ethyl)-1H-pyrazolo[3,4-d]pyrimidine] belongs 81.6 nM.
`Clc1ccc(-c2ncnc3c2cnn3CCN2CCCCC2)s1` [Example 20, 4-(5-chlorothiophen-2-yl)-1-(2-(piperidin-1-yl)ethyl)-1H-pyrazolo[3,4-d]pyrimidine] yielded a Ki of 35 nM.
Compound `CCOc1ccccc1-c1ncnc2c1cnn2CCN1CCCCC1` [Example 13, 4-(2-ethoxyphenyl)-1-(2-(piperidin-1-yl)ethyl)-1H-pyrazolo[3,4-d]pyrimidine hydrochloride] came in with a Ki of 300 nM.
Regarding `Fc1ccc(-c2ncnc3c2cnn3CCN2CCCCC2)cc1` [Example 14, 4-(4-fluorophenyl)-1-(2-(piperidin-1-yl)ethyl)-1H-pyrazolo[3,4-d]pyrimidine], affinity was put at a Ki of 95.4 nM.
`Cc1ccccc1-c1ncnc2c1cnn2CCN1CCCCC1` [Example 2, 1-(2-(piperidin-1-yl)ethyl)-4-o-tolyl-1H-pyrazolo[3,4-d]pyrimidine]: the affinity, expressed as Ki, was 73.8 nM.
To `Clc1ccccc1-c1ncnc2c1cnn2CCN1CCCCC1` [Example 35, 4-(2-chlorophenyl)-1-(2-(piperidin-1-yl)ethyl)-1H-pyrazolo[3,4-d]pyrimidine] belongs 75.7 nM.
Compound `Clc1ccc(-c2ncnc3c2cnn3CCN2CCCCC2)cc1` [Example 21, 4-(4-chlorophenyl)-1-(2-(piperidin-1-yl)ethyl)-1H-pyrazolo[3,4-d]pyrimidine] showed a Ki of 42.6 nM.
In the case of `Cc1noc(C)c1-c1ncnc2c1cnn2CCN1CCCCC1` [Example 6, 3,5-dimethyl-4-(1-(2-(piperidin-1-yl)ethyl)-1H-pyrazolo[3,4-d]pyrimidin-4-yl)isoxazole hydrochloride] it was 72.4 nM; in that of `CN(CCn1ncc2c(-c3ccccc3Cl)ncnc21)Cc1ccc(F)cc1` [Example 47, 2-(4-(2-chlorophenyl)-1H-pyrazolo[3,4-d]pyrimidin-1-yl)-N-(4-fluorobenzyl)-N-methylethanamine], 76.6 nM.
For the compound `Fc1ccc(-c2ncnc3c2cnn3CCN2CCCCC2)c(C(F)(F)F)c1` [Example 34, 4-(4-fluoro-2-(trifluoromethyl)phenyl)-1-(2-(piperidin-1-yl)ethyl)-1H-pyrazolo[3,4-d]pyrimidine], the affinity, expressed as Ki, was 57 nM.
Turning to `Cn1nc(C(F)(F)F)cc1-c1ncnc2c1cnn2CCN1CCCCC1` [Example 16, 4-(1-methyl-3-(trifluoromethyl)-1H-pyrazol-5-yl)-1-(2-(piperidin-1-yl)ethyl)-1H-pyrazolo[3,4-d]pyrimidine], the Ki worked out at 137 nM.
Compound `Cc1cc(F)ccc1-c1ncnc2c1cnn2CCN1CCCCC1` [Example 29, 4-(4-fluoro-2-methylphenyl)-1-(2-(piperidin-1-yl)ethyl)-1H-pyrazolo[3,4-d]pyrimidine] gave a Ki of 48.4 nM.
For `Fc1ccc(-c2ncnc3c2cnn3CCN2CCCCC2)c(Cl)c1` [Example 42, 4-(2-chloro-4-fluorophenyl)-1-(2-(piperidin-1-yl)ethyl)-1H-pyrazolo[3,4-d]pyrimidine], the Ki was 27 nM.
As for `Fc1cc(Cl)ccc1-c1ncnc2c1cnn2CCN1CCCCC1` [Example 46, 4-(4-chloro-2-fluorophenyl)-1-(2-(piperidin-1-yl)ethyl)-1H-pyrazolo[3,4-d]pyrimidine], the Ki is 112 nM.
To `CN(CCn1ncc2c(-c3ccc(F)cc3Cl)ncnc21)Cc1ccc(F)cc1` [Example 49, 2-(4-(2-chloro-4-fluorophenyl)-1H-pyrazolo[3,4-d]pyrimidin-1-yl)-N-(4-fluorobenzyl)-N-methylethanamine] belongs 61.7 nM.
Compound `Fc1ccc(-c2ncnc3c2cnn3CCN2CCC(F)(F)CC2)c(Cl)c1` [Example 44, 4-(2-chloro-4-fluorophenyl)-1-(2-(4,4-difluoropiperidin-1-yl)ethyl)-1H-pyrazolo[3,4-d]pyrimidine] came in with a Ki of 318 nM.
Take `Cc1cccc(-c2ncnc3c2cnn3CCN2CCCCC2)c1` [Example 3, 1-(2-(piperidin-1-yl)ethyl)-4-m-tolyl-1H-pyrazolo[3,4-d]pyrimidine hydrochloride]: the Ki was 82.5 nM.
In the case of `FC(F)(F)c1ccccc1-c1ncnc2c1cnn2CCN1CCCCC1` [Example 38, 1-(2-(piperidin-1-yl)ethyl)-4-(2-(trifluoromethyl)phenyl)-1H-pyrazolo[3,4-d]pyrimidine] it was 125 nM; in that of `COc1ncccc1-c1ncnc2c1cnn2CCN1CCCCC1` [Example 10, 4-(2-methoxypyridin-3-yl)-1-(2-(piperidin-1-yl)ethyl)-1H-pyrazolo[3,4-d]pyrimidine], 112 nM.
